Source: US10604512B2, “3-(1H-indol-2-yl)-1H-indazoles and therapeutic uses thereof” (Samumed, LLC, priority 2015, dated 2020)

Experiments:
[1] = system: Wnt activity (Sp5-Luc reporter, TCF/LEF binding sites) in SW480 colon carcinoma cells; assay: Screening assay for Wnt activity: Sp5-Luc reporter gene assay in stably transduced SW480 colon carcinoma cells; type: cell-based; settings: Homo sapiens, overnight incubation, 10-point curve from 10 μM
Summary of the method: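 SW480 cells stably transduced with a luciferase reporter driven by an Sp5 promoter of eight TCF/LEF sites were plated at 4,000 cells/well in 1% FBS medium. They were exposed overnight at 37° C to a 10-point 1:3 dilution series from 10 μM (0.1% DMSO). Luminescence was normalized to DMSO for four-parameter EC50, or percent inhibition at 10 μM.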

[2] = system: primary human mesenchymal stem cells (hMSCs); assay: Induction of chondrogenesis in primary human mesenchymal stem cells (nodule imaging, Rhodamine B / Nile Red); type: cell-based; settings: for EC50: concentration required to induce 50% levels of chondrogenesis vs TGF-β3 positive control, read-out: Conc (nM) of 50% TGF-β3 activity; for Emax: maximum chondrogenesis activity relative to TGF-β3 (10 ng/mL) positive control, read-out: Max. Activity as % TGF-β3 activity
Summary of the method: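 hMSCs (passage 3–6) in incomplete chondrogenic induction medium dosed at 2700–10 nM (96-well) or 5000–2.2 nM (384-well), 0.03% DMSO, for 6 days at 37 °C. Fixed cells stained with Rhodamine B/Nile Red and nodule area imaged, normalized to DMSO wells (fold change). EC50 set against TGF-β3 (10 ng/mL); maximum activity and its dose also reported.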

SMILES	EC50 [1] [nM]	EC50 [2] [nM]	Emax [2] [%]
c1ccc2[nH]c(-c3n[nH]c4ccc(-c5cncc(CN6CCCC6)c5)cc34)cc2c1 [Compound 266, 3-(1H-Indol-2-yl)-5-(5-(pyrrolidin-1-ylmethyl)pyridin-3-yl)-1H-indazole]	360	100	217
CN(C)Cc1cncc(-c2ccc3[nH]nc(-c4cc5c(-c6cccs6)cccc5[nH]4)c3c2)c1 [Compound 349, N,N-Dimethyl-1-(5-(3-(4-(thiophen-2-yl)-1H-indol-2-yl)-1H-indazol-5-yl)pyridin-3-yl)methanamine]	169	30	181
CS(=O)(=O)NCc1cc(F)cc(-c2cccc3[nH]c(-c4n[nH]c5ccc(-c6cncnc6)cc45)cc23)c1 [Compound 503, N-(3-Fluoro-5-(2-(5-(pyrimidin-5-yl)-1H-indazol-3-yl)-1H-indol-4-yl)benzyl) methanesulfonamide]	205	10	194
c1ccc2[nH]c(-c3n[nH]c4ccc(-c5cncc(OCCN6CCCC6)c5)cc34)cc2c1 [Compound 686, 3-(1H-Indol-2-yl)-5-(5-(2-(pyrrolidin-1-yl)ethoxy)pyridin-3-yl)-1H-indazole]	1090	10	213
